Results published in ChEMBL document CHEMBL1649540, “The novel CXCR4 antagonist KRH-3955 is an orally bioavailable and extremely potent inhibitor of human immunodeficiency virus type 1 infection: comparative studies with AMD3100” (Antimicrob Agents Chemother, 2009).
Active and inactive are the calls of the source. No cut-off for these calls is given here.

Experiments:
[1] = AUC (0 to 336 hrs) in Sprague-Dawley rat at 10 mg/kg, po administered as single dose; type: ADME, organism-based; set-up: time < 336 hr, dose 10 mg/kg, route oral; conditions: plasma
[2] = tested on: Human immunodeficiency virus 1; assay: Antiviral activity against HIV1 NL4-3 infected in HEK293 cells assessed as inhibition of viral replication after 2 days; type: functional, organism-based; conditions: Human immunodeficiency virus 1, NL4-3, HEK293, 48 h
[3] = Half life in Sprague-Dawley rat at 10 mg/kg, iv administered as single dose; type: ADME, organism-based; set-up: dose 10 mg/kg, route intravenous; conditions: in vivo
[4] = target: C-X-C chemokine receptor type 4 (Homo sapiens, UniProt P61073, D262A)
C-X-C chemokine receptor type 4 (Homo sapiens, UniProt P61073, D262A), sequence (P61073 whole entry D262A): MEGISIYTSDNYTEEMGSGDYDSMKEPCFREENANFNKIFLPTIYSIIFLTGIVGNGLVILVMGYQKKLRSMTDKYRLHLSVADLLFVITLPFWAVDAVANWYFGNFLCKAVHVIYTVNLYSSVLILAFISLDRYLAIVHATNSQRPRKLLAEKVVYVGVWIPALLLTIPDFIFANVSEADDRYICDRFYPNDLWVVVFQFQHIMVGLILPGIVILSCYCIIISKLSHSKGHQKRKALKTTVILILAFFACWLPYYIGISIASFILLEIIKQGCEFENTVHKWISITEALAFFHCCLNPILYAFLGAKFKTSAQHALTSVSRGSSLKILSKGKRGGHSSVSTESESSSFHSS

[5] = tested on: C-X-C chemokine receptor type 4 (Homo sapiens), P61073 [H203A]; assay: (§1) Inhibition of Mab 12G5 binding to CXCR4 H203A mutant expressed in HEK293 cells; type: cell-based
C-X-C chemokine receptor type 4 (Homo sapiens), P61073 [H203A], sequence (P61073 whole entry H203A): as the sequence (P61073 whole entry D262A) above, with H203A, A262D counted along it

[6] = target: C-X-C chemokine receptor type 4 (Homo sapiens, UniProt P61073, H203A); assay: as §1; type: cell-based
C-X-C chemokine receptor type 4 (Homo sapiens, UniProt P61073, H203A), sequence (P61073 whole entry H203A): as the sequence (P61073 whole entry D262A) above, with H203A, A262D counted along it

[7] = target: C-X-C chemokine receptor type 4 (Homo sapiens, UniProt P61073, E277A)
C-X-C chemokine receptor type 4 (Homo sapiens, UniProt P61073, E277A), sequence (P61073 whole entry E277A): as the sequence (P61073 whole entry D262A) above, with A262D, E277A counted along it

[8] = Oral bioavailability in Sprague-Dawley rat at 10 mg/kg administered as single dose; type: ADME, organism-based; conditions: in vivo
[9] = Clearance in Sprague-Dawley rat at 10 mg/kg, iv administered as single dose; type: ADME, organism-based; set-up: dose 10 mg/kg, route intravenous; conditions: in vivo
[10] = tested on: Human immunodeficiency virus 1; assay: Antiviral activity against multidrug resistant HIV1 HXB2 infected in HEK293 cells assessed as inhibition of viral replication after 2 days; type: functional, organism-based; conditions: Human immunodeficiency virus 1, HXB2, HEK293, 48 h
[11] = tested on: Human immunodeficiency virus 1; assay: Antiviral activity against HIV1 JRCSF infected in human PBMC assessed as inhibition of viral p24 antigen production after 7 to 10 days by ELISA; type: functional; conditions: Human immunodeficiency virus 1, JRCSF ISOLATE
[12] = tested on: Human immunodeficiency virus 1; assay: Antiviral activity against HIV1 NL4-3 infected in human PBMC assessed as inhibition of viral p24 antigen production after 7 to 10 days by ELISA; type: functional, organism-based; conditions: Human immunodeficiency virus 1, NL4-3
[13] = target: C-X-C chemokine receptor type 1 (Homo sapiens) (UniProt P25024); assay: Displacement of [125I]IL8 form CXCR1 expressed in CHO cells by scintillation counting; type: cell-based
C-X-C chemokine receptor type 1 (Homo sapiens), sequence (P25024 whole entry): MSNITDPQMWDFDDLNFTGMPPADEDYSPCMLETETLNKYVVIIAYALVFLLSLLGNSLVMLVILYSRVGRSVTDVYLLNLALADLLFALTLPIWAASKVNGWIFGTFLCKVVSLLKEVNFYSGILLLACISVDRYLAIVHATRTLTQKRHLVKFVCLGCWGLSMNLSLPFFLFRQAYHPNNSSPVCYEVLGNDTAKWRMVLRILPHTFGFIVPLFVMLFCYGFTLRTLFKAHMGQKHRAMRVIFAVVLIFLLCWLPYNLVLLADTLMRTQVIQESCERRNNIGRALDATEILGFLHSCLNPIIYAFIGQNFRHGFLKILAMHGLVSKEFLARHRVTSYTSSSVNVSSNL

[14] = tested on: C-X-C chemokine receptor type 4 (Homo sapiens), P61073 [W283A]; conditions: HEK293
C-X-C chemokine receptor type 4 (Homo sapiens), P61073 [W283A], sequence (P61073 whole entry W283A): as the sequence (P61073 whole entry D262A) above, with A262D, W283A counted along it

[15] = target: C-C chemokine receptor type 5 (Homo sapiens) (UniProt P51681); assay: Displacement of [125I]RANTES form CCR5 expressed in CHO cells by scintillation counting; type: cell-based
C-C chemokine receptor type 5 (Homo sapiens), sequence (P51681 whole entry, looked up): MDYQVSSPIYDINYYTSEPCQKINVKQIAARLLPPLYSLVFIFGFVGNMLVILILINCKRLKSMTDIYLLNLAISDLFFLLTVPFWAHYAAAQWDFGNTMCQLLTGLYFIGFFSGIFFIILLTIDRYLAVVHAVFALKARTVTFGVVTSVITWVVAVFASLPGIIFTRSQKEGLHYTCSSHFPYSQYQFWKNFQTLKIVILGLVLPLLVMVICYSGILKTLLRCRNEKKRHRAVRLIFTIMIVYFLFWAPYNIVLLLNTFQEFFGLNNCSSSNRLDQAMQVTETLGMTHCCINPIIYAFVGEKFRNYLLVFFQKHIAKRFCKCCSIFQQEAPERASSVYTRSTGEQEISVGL

[16] = tested on: C-X-C chemokine receptor type 4 (Homo sapiens), P61073 [E277A]; conditions: HEK293
C-X-C chemokine receptor type 4 (Homo sapiens), P61073 [E277A], sequence (P61073 whole entry E277A): as the sequence (P61073 whole entry D262A) above, with A262D, E277A counted along it

[17] = target: C-X-C chemokine receptor type 4 (Homo sapiens, UniProt P61073, V280A); assay: (§2) Inhibition of Mab 12G5 binding to CXCR4 V280A mutant expressed in HEK293 cells; type: cell-based
C-X-C chemokine receptor type 4 (Homo sapiens, UniProt P61073, V280A), sequence (P61073 whole entry V280A): as the sequence (P61073 whole entry D262A) above, with A262D, V280A counted along it

[18] = tested on: C-X-C chemokine receptor type 4 (Homo sapiens), P61073 [V280A]; assay: as §2; type: cell-based
C-X-C chemokine receptor type 4 (Homo sapiens), P61073 [V280A], sequence (P61073 whole entry V280A): as the sequence (P61073 whole entry D262A) above, with A262D, V280A counted along it

[19] = tested on: Human immunodeficiency virus 1; assay: Antiviral activity against NNRTI-resistant HIV1 HXB2 infected in HEK293 cells assessed as inhibition of viral replication after 2 days; type: functional, organism-based; conditions: Human immunodeficiency virus 1, HXB2, HEK293, 48 h
[20] = target: T1, C-X-C chemokine receptor type 4 (Homo sapiens, UniProt P61073); assay: Antagonist activity at CXCR4 expressed in CHO cells assessed as inhibition of SDF1-alpha-induced calcium mobilization by fluorescence assay; type: functional, cell-based
T1 sequence (P61073 whole entry): as the sequence (P61073 whole entry D262A) above, with A262D counted along it

[21] = tested on: Human immunodeficiency virus 1; assay: Antiviral activity against HIV1 NL4-3 infected in SCID mouse assessed as viral p24 antigen level in spleen at 10 mg/kg, po administered as single dose after 7 days; type: functional
[22] = target: T1, C-X-C chemokine receptor type 4; assay: Inhibition of Mab 12G5 binding to CXCR4 expressed in human MOLT4 cells at 10 nM by FACS analysis; type: cell-based; conditions: MOLT-4
[23] = target: C-X-C chemokine receptor type 4 (Homo sapiens, UniProt P61073, W283A)
C-X-C chemokine receptor type 4 (Homo sapiens, UniProt P61073, W283A), sequence (P61073 whole entry W283A): as the sequence (P61073 whole entry D262A) above, with A262D, W283A counted along it

[24] = target: T1, C-X-C chemokine receptor type 4; assay: Inhibition of Mab 12G5 binding to CXCR4 expressed in human MOLT4 cells by FACS analysis; type: cell-based; conditions: MOLT-4
[25] = target: T1, C-X-C chemokine receptor type 4; assay: Inhibition of Mab 12G5 binding to CXCR4 expressed in human MOLT4 cells at 10 nM measured after 6 hrs post drug washout by FACS analysis; type: cell-based; conditions: MOLT-4
[26] = tested on: Human immunodeficiency virus 1; assay: Antiviral activity against HIV1 X4 infected in human PBMC assessed as inhibition of viral p24 antigen production after 7 to 10 days by ELISA; type: functional, organism-based; conditions: Human immunodeficiency virus 1, X4
[27] = target: T1, C-X-C chemokine receptor type 4; assay: Inhibition of Mab 12G5 binding to wild type CXCR4 expressed in HEK293 cells; type: cell-based
[28] = target: C-C chemokine receptor type 1 (Homo sapiens) (UniProt P32246); assay: Displacement of [125I]RANTES form CCR1 expressed in CHO cells by scintillation counting; type: cell-based
C-C chemokine receptor type 1 (Homo sapiens), sequence (P32246 whole entry): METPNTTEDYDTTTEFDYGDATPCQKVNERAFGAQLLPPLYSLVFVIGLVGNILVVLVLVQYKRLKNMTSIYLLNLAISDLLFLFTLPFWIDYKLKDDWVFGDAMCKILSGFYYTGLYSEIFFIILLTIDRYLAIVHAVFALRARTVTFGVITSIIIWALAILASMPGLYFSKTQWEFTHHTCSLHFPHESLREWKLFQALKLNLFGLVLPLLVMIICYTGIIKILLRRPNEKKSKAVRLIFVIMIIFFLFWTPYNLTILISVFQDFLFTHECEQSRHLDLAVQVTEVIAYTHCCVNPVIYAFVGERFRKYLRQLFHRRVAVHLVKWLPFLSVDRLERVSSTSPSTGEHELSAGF

[29] = Tmax in Sprague-Dawley rat at 10 mg/kg, po administered as single dose; conditions: in vivo
[30] = tested on: Human immunodeficiency virus 1; assay: Antiviral activity against HIV1 HXB2 infected in HEK293 cells assessed as inhibition of viral replication after 2 days; type: functional, organism-based; conditions: Human immunodeficiency virus 1, HXB2, HEK293, 48 h
[31] = tested on: Human immunodeficiency virus 1; assay: Antiviral activity against HIV1 A018H infected in human PBMC assessed as inhibition of viral p24 antigen production after 7 to 10 days by ELISA; type: functional, organism-based; conditions: Human immunodeficiency virus 1, A018H
[32] = target: C-X-C chemokine receptor type 4 (Homo sapiens, UniProt P61073, E275A); assay: (§3) Inhibition of Mab 12G5 binding to CXCR4 E275A mutant expressed in HEK293 cells; type: cell-based
C-X-C chemokine receptor type 4 (Homo sapiens, UniProt P61073, E275A), sequence (P61073 whole entry E275A): as the sequence (P61073 whole entry D262A) above, with A262D, E275A counted along it

[33] = tested on: C-X-C chemokine receptor type 4 (Homo sapiens), P61073 [E275A]; assay: as §3; type: cell-based
C-X-C chemokine receptor type 4 (Homo sapiens), P61073 [E275A], sequence (P61073 whole entry E275A): as the sequence (P61073 whole entry D262A) above, with A262D, E275A counted along it

[34] = target: T1, C-X-C chemokine receptor type 4; assay: Inhibition of Mab A80 binding to CXCR4 expressed in human MOLT4 cells by FACS analysis; type: cell-based; conditions: MOLT-4
[35] = target: T1, C-X-C chemokine receptor type 4; assay: Inhibition of Mab A145 binding to CXCR4 expressed in human MOLT4 cells at 0.1 to 1000 nM by FACS analysis; type: cell-based; conditions: MOLT-4
[36] = target: C-X-C chemokine receptor type 4 (Homo sapiens, UniProt P61073, I284A); assay: (§4) Inhibition of Mab 12G5 binding to CXCR4 I284A mutant expressed in HEK293 cells; type: cell-based
C-X-C chemokine receptor type 4 (Homo sapiens, UniProt P61073, I284A), sequence (P61073 whole entry I284A): as the sequence (P61073 whole entry D262A) above, with A262D, I284A counted along it

[37] = tested on: C-X-C chemokine receptor type 4 (Homo sapiens), P61073 [I284A]; assay: as §4; type: cell-based
C-X-C chemokine receptor type 4 (Homo sapiens), P61073 [I284A], sequence (P61073 whole entry I284A): as the sequence (P61073 whole entry D262A) above, with A262D, I284A counted along it

[38] = target: T1, C-X-C chemokine receptor type 4; assay: Inhibition of Mab 12G5 binding to CXCR4 expressed in human MOLT4 cells at 10 nM measured post drug washout by FACS analysis; type: cell-based; conditions: MOLT-4
[39] = tested on: Human immunodeficiency virus 1; assay: Antiviral activity against HIV1 A018G infected in human PBMC assessed as inhibition of viral p24 antigen production after 7 to 10 days by ELISA; type: functional, organism-based; conditions: Human immunodeficiency virus 1, A018G

## CCCN(CCC)CCCCN(C)Cc1ccc(CN(Cc2ncc[nH]2)Cc2nccn2C)cc1.O=C(O)C(O)C(O)C(=O)O
[1]
  AUC(0-t) at 336 h: 325 ng·h/mL
[2]
  IC50: 0.5 nM
[3]
  half-life: 99 h
[4]
  IC50: 1.6 nM
[5]
  IC90: 5.3 nM
[6]
  IC50: 0.5 nM
[7]
  IC50: 3.1 nM
[8]
  bioavailability: 25.6%
[9]
  clearance: 65 mL/min/kg
[10]
  IC50: 0.7 nM
[11]
  EC50: > 200 nM
[12]
  EC50: 1.1 nM
[13]
  Activity: inactive
[14]
  IC90: 6.9 nM
[15]
  Activity: inactive
[16]
  IC90: 8.7 nM
[17]
  IC50: 1 nM
[18]
  IC90: 6.1 nM
[19]
  IC50: 0.8 nM
[20]
  inhibition: Dose-dependent effect
[21]
  Activity: <5 pg/mL
[22]
  inhibition: Active
[23]
  IC50: 1.3 nM
[24]
  inhibition: Dose-dependent effect
[25]
  inhibition: 40%
[26]
  EC50: 0.33 nM
[27]
  IC50: 2.8 nM
  IC90: 8.2 nM
[28]
  Activity: inactive
[29]
  Tmax: 2.3 h
[30]
  IC50: 0.6 nM
[31]
  EC50: 1.4 nM
[32]
  IC50: 1 nM
[33]
  IC90: 6.4 nM
[34]
  inhibition: Dose-dependent effect
[35]
  inhibition: inactive
[36]
  IC50: 1.2 nM
[37]
  IC90: 6.8 nM
[38]
  inhibition: Active
[39]
  EC50: 1.3 nM
